From US12692269B2, “Therapeutic compounds” (Genentech, Inc., priority 2019, dated 2026) come the findings set out here.

In general, EC50 refers to the concentration giving half of the maximal effect.

Holding throughout (assay type): binding
Test [1] deals with TEAD3 TAZ (amino acids 13-57) (Homo sapiens, UniProt Q99594). As to the kind of experiment: TEAD3-TAZ HTRF (TR-FRET) protein-protein interaction assay. As to conditions: for TEAD3 TAZ HTRF combined: Max % Inhibition: TEAD3, TAZ peptide; for EC50: TEAD3-TAZ HTRF, TR-FRET 665 nm/615 nm, read-out: TEAD3 TAZ HTRF combined: EC50. In outline: (§1)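 His-tagged TEAD YAP-binding domain (aa 217-447) pre-bound to Eu anti-His tracer, incubated with compound 30 min, then biotinylated YAP (aa 50-100) or TAZ (aa 13-57) peptide with streptavidin-XL665 added for 60 min at room temperature. TR-FRET read at 665/615 nm; IC50 or EC50 from four-parameter fit.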
On the technique in general: Time-resolved FRET reads energy transfer from a long-lived donor to a nearby acceptor.

In test [2] the target is TEAD4 TAZ (amino acids 13-57) (Homo sapiens, UniProt Q15561). As to the kind of experiment: TEAD4-TAZ HTRF (TR-FRET) protein-protein interaction assay. The note with it: for TEAD4 TAZ HTRF combined: Max % Inhibition: TEAD4, TAZ peptide; for EC50: TEAD4-TAZ HTRF, TR-FRET 665 nm/615 nm, read-out: TEAD4 TAZ HTRF combined: EC50. In outline: as §1
Test [3] concerns the target TEAD2 TAZ (amino acids 13-57) (Homo sapiens, UniProt Q15562). As to the kind of experiment: TEAD2-TAZ HTRF (TR-FRET) protein-protein interaction assay. The note with it: for TEAD2 TAZ HTRF combined: Max % Inhibition: TEAD2, TAZ peptide; for EC50: TEAD2-TAZ HTRF, TR-FRET 665 nm/615 nm, read-out: TEAD2 TAZ HTRF combined: EC50. In outline: as §1
The next test addresses TEAD3 YAP50-100 (Homo sapiens, UniProt Q99594). Description: TEAD3-YAP HTRF (TR-FRET) protein-protein interaction assay. The note with it: TEAD3, YAP peptide 50-100, HTRF; for EC50: read-out: TEAD3 YAP50-100 HTRF combined: EC50. In outline: as §1
Another test addresses TEAD1 YAP50-100 (Homo sapiens, UniProt P28347). Description: TEAD1-YAP HTRF (TR-FRET) protein-protein interaction assay. As to conditions: TEAD1, YAP peptide 50-100, HTRF; for EC50: read-out: TEAD1 YAP50-100 HTRF combined: EC50. In outline:
as §1

For a further test, the target named is TEAD4 YAP50-100 (Homo sapiens, UniProt Q15561). Description: TEAD4-YAP HTRF (TR-FRET) protein-protein interaction assay. As to conditions: TEAD4, YAP peptide 50-100, HTRF; for EC50: read-out: TEAD4 YAP50-100 HTRF combined: EC50. An outline of the steps:
as §1

For test [4], the target named is TEAD1 TAZ (amino acids 13-57) (Homo sapiens, UniProt P28347). Description: TEAD1-TAZ HTRF (TR-FRET) protein-protein interaction assay. The note with it: for TEAD1 TAZ HTRF combined: Max % Inhibition: TEAD1, TAZ peptide; for EC50: TEAD1-TAZ HTRF, TR-FRET 665 nm/615 nm, read-out: TEAD1 TAZ HTRF combined: EC50. An outline of the steps: as §1
A further test concerns the target TEAD2 YAP50-100 (Homo sapiens, UniProt Q15562). Description: TEAD2-YAP HTRF (TR-FRET) protein-protein interaction assay. As to conditions: TEAD2, YAP peptide 50-100, HTRF; for EC50: read-out: TEAD2 YAP50-100 HTRF combined: EC50. An outline of the steps:
as §1

Molecules are shown by their SMILES.

Sequence of TEAD1 YAP50-100 (P28347 167-426 limits assumed): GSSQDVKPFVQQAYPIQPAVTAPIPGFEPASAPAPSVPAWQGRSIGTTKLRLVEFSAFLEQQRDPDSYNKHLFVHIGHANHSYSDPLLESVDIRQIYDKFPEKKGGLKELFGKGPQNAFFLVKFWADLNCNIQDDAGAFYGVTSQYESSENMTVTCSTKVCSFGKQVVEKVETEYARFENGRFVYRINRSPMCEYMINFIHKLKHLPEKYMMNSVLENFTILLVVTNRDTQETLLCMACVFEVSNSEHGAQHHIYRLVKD
Sequence of TEAD1 TAZ (amino acids 13-57) (P28347 167-426 limits assumed): as above
Sequence of TEAD4 TAZ (amino acids 13-57) (Q15561 217-434 limits assumed): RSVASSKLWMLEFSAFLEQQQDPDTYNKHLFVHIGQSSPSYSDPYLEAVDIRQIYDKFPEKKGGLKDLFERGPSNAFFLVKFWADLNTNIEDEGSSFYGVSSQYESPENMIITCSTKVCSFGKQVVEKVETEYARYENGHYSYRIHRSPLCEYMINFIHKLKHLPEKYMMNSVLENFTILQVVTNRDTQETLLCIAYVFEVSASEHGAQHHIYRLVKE
Sequence of TEAD4 YAP50-100 (Q15561 217-434 limits assumed): as above
Sequence of TEAD3 TAZ (amino acids 13-57) (Q99594 173-435 limits assumed): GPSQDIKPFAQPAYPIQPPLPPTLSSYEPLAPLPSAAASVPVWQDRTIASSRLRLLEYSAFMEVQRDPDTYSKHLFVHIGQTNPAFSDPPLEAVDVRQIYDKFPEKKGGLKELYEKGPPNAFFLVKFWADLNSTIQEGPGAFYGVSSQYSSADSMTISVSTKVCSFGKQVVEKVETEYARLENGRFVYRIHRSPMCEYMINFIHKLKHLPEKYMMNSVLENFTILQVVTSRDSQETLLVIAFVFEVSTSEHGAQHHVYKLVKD
Sequence of TEAD3 YAP50-100 (Q99594 173-435 limits assumed): as above
Sequence of TEAD2 TAZ (amino acids 13-57) (Q15562 217-447): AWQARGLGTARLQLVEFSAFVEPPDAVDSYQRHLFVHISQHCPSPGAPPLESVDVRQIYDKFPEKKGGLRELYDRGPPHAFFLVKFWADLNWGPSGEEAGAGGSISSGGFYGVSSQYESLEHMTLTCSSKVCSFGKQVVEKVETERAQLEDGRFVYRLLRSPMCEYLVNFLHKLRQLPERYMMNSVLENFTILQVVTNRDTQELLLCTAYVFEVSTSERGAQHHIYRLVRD
Sequence of TEAD2 YAP50-100 (Q15562 217-447): as above

Regarding `CC(C)c1ccc(COc2cc(=O)n3nc(-c4cnccn4)c(C(=O)N4CC(CF)C4)c3[nH]2)cc1` [Compound 52, 3-(3-(Fluoromethyl)azetidine-1-carbonyl)-5-((4-isopropylbenzyl)oxy)-2-(pyrazin-2-yl)pyrazolo[1,5-a]primidin-7(4H)-one], in test [1], the “TEAD3 TAZ HTRF combined: Max % Inhibition” value was found to be 48.0% and the EC50 was found to be 180 nM. Moreover, in test [2], the “TEAD4 TAZ HTRF combined: Max % Inhibition” value is on record as 58.0% and the EC50 amounted to 150 nM. Moreover, in test [3], the “TEAD2 TAZ HTRF combined: Max % Inhibition” value is reported as 69.0% and the EC50 is 20 nM. Also, at TEAD3 YAP50-100, the “TEAD3 YAP50-100 HTRF combined: Max % Inhibition” value worked out at 57.0% and the EC50 came out at 150 nM. Further, on TEAD1 YAP50-100, the “TEAD1 YAP50-100 HTRF combined: Max % Inhibition” value is given as 70.0% and the EC50 was found to be 50 nM. At TEAD4 YAP50-100, the “TEAD4 YAP50-100 HTRF combined: Max % Inhibition” value was determined as 66.0% and the EC50 turned out to be 180 nM. Moreover, in test [4], the “TEAD1 TAZ HTRF combined: Max % Inhibition” value was 62.0% and the EC50 turned out to be 60 nM. Further, on TEAD2 YAP50-100, the “TEAD2 YAP50-100 HTRF combined: Max % Inhibition” value was 68.0% and the EC50 turned out to be 20 nM.

In the case of `CN(C)C(=O)c1nn2c(=O)cc(-c3ccc(C4CCCCC4)c(F)c3)[nH]c2c1C(=O)N1CC(CF)C1` [Compound 4, 5-(4-Cyclohexyl-3-fluorophenyl)-3-(3-(fluoromethyl)azetidine-1-carbonyl)-N,N-dimethyl-7-oxo-4,7-dihydropyrazolo[1,5-a]pyrimidine-2-carboxamide], in test [1], the “TEAD3 TAZ HTRF combined: Max % Inhibition” value is given as 59.0% and the EC50 came out at 80 nM. Moreover, in test [2], the “TEAD4 TAZ HTRF combined: Max % Inhibition” value worked out at 36.0% and the EC50 was found to be 150 nM. Moreover, in test [3], the “TEAD2 TAZ HTRF combined: Max % Inhibition” value came to 64.5% and the EC50 was found to be 10 nM. For the same compound, at TEAD3 YAP50-100, the “TEAD3 YAP50-100 HTRF combined: Max % Inhibition” value stood at 69.0% and the EC50 turned out to be 70 nM. Also, at TEAD1 YAP50-100, the “TEAD1 YAP50-100 HTRF combined: Max % Inhibition” value came to 69.0% and the EC50 stood at 40 nM. For the same compound, on TEAD4 YAP50-100, the “TEAD4 YAP50-100 HTRF combined: Max % Inhibition” value is recorded as 48.5% and the EC50 was 200 nM. Also, in test [4], the “TEAD1 TAZ HTRF combined: Max % Inhibition” value is listed as 59.0% and the EC50 was 50 nM. On TEAD2 YAP50-100, the “TEAD2 YAP50-100 HTRF combined: Max % Inhibition” value was 64.0% and the EC50 was 10 nM.

Take `COc1ccnc(-c2nn3c(=O)cc(-c4ccc(C5CCCCC5)cc4)[nH]c3c2C(=O)N2CC(CF)C2)n1` [Compound 14, 5-(4-Cyclohexylphenyl)-3-(3-(fluoromethyl)azetidine-1-carbonyl)-2-(4-methoxypyrimidin-2-yl)pyrazolo[1,5-a]pyrimidin-7(4H)-one]: in test [1], the “TEAD3 TAZ HTRF combined: Max % Inhibition” value came to 52.5% and the EC50 was found to be 80 nM. Further, in test [2], the “TEAD4 TAZ HTRF combined: Max % Inhibition” value was 53.5% and the EC50 stood at 50 nM. Besides, in test [3], the “TEAD2 TAZ HTRF combined: Max % Inhibition” value is 67.5% and the EC50 was 10 nM. At TEAD3 YAP50-100, the “TEAD3 YAP50-100 HTRF combined: Max % Inhibition” value is 61.0% and the EC50 was 90 nM. Also, on TEAD1 YAP50-100, the “TEAD1 YAP50-100 HTRF combined: Max % Inhibition” value is listed as 73.0% and the EC50 was 30 nM. At TEAD4 YAP50-100, the “TEAD4 YAP50-100 HTRF combined: Max % Inhibition” value is recorded as 50.0% and the EC50 was 60 nM. For the same compound, in test [4], the “TEAD1 TAZ HTRF combined: Max % Inhibition” value amounted to 74.0% and the EC50 is 60 nM. In addition, at TEAD2 YAP50-100, the “TEAD2 YAP50-100 HTRF combined: Max % Inhibition” value is given as 62.5% and the EC50 turned out to be 10 nM.

In the case of `Cc1ccnc(-c2nn3c(=O)cc(-c4ccc(C5CCCCC5)cc4)[nH]c3c2C(=O)N2CC(CF)C2)c1` [Compound 18, 5-(4-Cyclohexylphenyl)-3-(3-(fluoromethyl)azetidine-1-carbonyl)-2-(4-methylpvridin-2-yl)pyrazolo[1,5-a]pyrimidin-7(4H)-one], in test [1], the “TEAD3 TAZ HTRF combined: Max % Inhibition” value was 43.0% and the EC50 was determined as 90 nM. Further, in test [2], the “TEAD4 TAZ HTRF combined: Max % Inhibition” value was 49.0% and the EC50 stood at 20 nM. In test [3], the “TEAD2 TAZ HTRF combined: Max % Inhibition” value worked out at 55.5% and the EC50 came out at 10 nM. At TEAD3 YAP50-100, the “TEAD3 YAP50-100 HTRF combined: Max % Inhibition” value stood at 54.5% and the EC50 was 90 nM. In addition, at TEAD1 YAP50-100, the “TEAD1 YAP50-100 HTRF combined: Max % Inhibition” value came out at 73.0% and the EC50 came to 50 nM. Besides, at TEAD4 YAP50-100, the “TEAD4 YAP50-100 HTRF combined: Max % Inhibition” value is 47.0% and the EC50 came out at 20 nM. Besides, in test [4], the “TEAD1 TAZ HTRF combined: Max % Inhibition” value amounted to 67.0% and the EC50 was 60 nM. At TEAD2 YAP50-100, the “TEAD2 YAP50-100 HTRF combined: Max % Inhibition” value is given as 58.5% and the EC50 turned out to be 10 nM.

Consider `CC(CO)c1nn2c(=O)cc(-c3ccc(C4CCCCC4)cc3)[nH]c2c1C(=O)N1CC[C@@H](C#N)C1` (single isomer, unassigned) [Final product obtained using Enantiomer A from Step 4, Example 54], for which, in test [1], the “TEAD3 TAZ HTRF combined: Max % Inhibition” value came out at 73.0% and the EC50 stood at 260 nM. For the same compound, in test [2], the “TEAD4 TAZ HTRF combined: Max % Inhibition” value amounted to 44.5% and the EC50 was determined as 480 nM. Besides, in test [3], the “TEAD2 TAZ HTRF combined: Max % Inhibition” value amounted to 71.0% and the EC50 stood at 40 nM. For the same compound, at TEAD3 YAP50-100, the “TEAD3 YAP50-100 HTRF combined: Max % Inhibition” value came to 71.5% and the EC50 came out at 250 nM. In addition, on TEAD1 YAP50-100, the “TEAD1 YAP50-100 HTRF combined: Max % Inhibition” value was determined as 59.0% and the EC50 was 130 nM. Besides, on TEAD4 YAP50-100, the “TEAD4 YAP50-100 HTRF combined: Max % Inhibition” value is on record as 47.5% and the EC50 is 550 nM. Further, in test [4], the “TEAD1 TAZ HTRF combined: Max % Inhibition” value came out at 41.5% and the EC50 was found to be 240 nM. Further, on TEAD2 YAP50-100, the “TEAD2 YAP50-100 HTRF combined: Max % Inhibition” value stood at 65.0% and the EC50 was 40 nM.

For `Cc1ccnc(-c2nn3c(=O)cc(-c4ccc(C5CCCCC5)cc4)[nH]c3c2C(=O)N2CC(CF)C2)c1C` [Compound 29, 5-(4-Cyclohexylphenyl)-2-(3,4-dimethylpyridin-2-yl)-3-(3-(fluoromethyl)azetidine-1-carbonyl)pyrazolo[1,5-a]pyrimidin-7(4H)-one], in test [1], the “TEAD3 TAZ HTRF combined: Max % Inhibition” value was determined as 57.5% and the EC50 was 170 nM. In addition, in test [2], the “TEAD4 TAZ HTRF combined: Max % Inhibition” value turned out to be 50.5% and the EC50 was found to be 20 nM. Moreover, in test [3], the “TEAD2 TAZ HTRF combined: Max % Inhibition” value is 70.0% and the EC50 came to 20 nM. Further, on TEAD3 YAP50-100, the “TEAD3 YAP50-100 HTRF combined: Max % Inhibition” value is 72.5% and the EC50 is 180 nM. At TEAD1 YAP50-100, the “TEAD1 YAP50-100 HTRF combined: Max % Inhibition” value is 78.0% and the EC50 was found to be 60 nM. On TEAD4 YAP50-100, the “TEAD4 YAP50-100 HTRF combined: Max % Inhibition” value came out at 54.0% and the EC50 turned out to be 30 nM. For the same compound, in test [4], the “TEAD1 TAZ HTRF combined: Max % Inhibition” value is given as 71.5% and the EC50 was 90 nM. Besides, at TEAD2 YAP50-100, the “TEAD2 YAP50-100 HTRF combined: Max % Inhibition” value came out at 70.0% and the EC50 worked out at 20 nM.
